From paper PMC12190436, “5-Ene-2-arylaminothiazol-4(5H)-ones Induce Apoptosis in Breast Cancer Cells” (Cells, 2025)

Legend:
Format in all cases: cell-based
SNB-19 = system: SNB-19
M14 = system: M14
OVCAR-5 = system: OVCAR-5
NCI/ADR-RES = system: NCI/ADR-RES
Ovarian Cancer = system: Ovarian Cancer
UO-31 = system: UO-31
Breast Cancer = system: Breast Cancer

COc1cc(NC2=NC(=O)C(=Cc3c[nH]c4ccccc34)S2)cc(OC)c1OC [Les-6418, 5-((1H-Indol-3-yl)methylene)-2-((3,4,5-trimethoxyphenyl)amino)thiazol-4(5H)-one]
GI50 (SNB-19; Homo sapiens, SNB-19, 48 h): 6.6 µM
CC50 (SNB-19; Homo sapiens, SNB-19, 48 h, read-out: LC50 (the source's name)): 52.2 µM
TGI (SNB-19; SNB-19, 48 h): 21.2 µM
SI (TGI) (SNB-19; SNB-19, MG_MID_60/value): 0.88
GI50 (M14; Homo sapiens, M14, 48 h): 2.02 µM
CC50 (M14; Homo sapiens, M14, 48 h, read-out: LC50 (the source's name)): 55.6 µM
TGI (M14; M14, 48 h): 15.9 µM
SI (TGI) (M14; M14, MG_MID_60/value): 1.17
GI50 (OVCAR-5; Homo sapiens, OVCAR-5, 48 h): 4.58 µM
LC50 (concentration killing 50% of cells) (OVCAR-5; Homo sapiens, OVCAR-5, 48 h): 44.1 µM
TGI (OVCAR-5; OVCAR-5, 48 h): 17.7 µM
SI (TGI) (OVCAR-5; OVCAR-5, MG_MID_60/value): 1.05
TGI (NCI/ADR-RES; 48 h): 24.2 µM
GI50 (NCI/ADR-RES; Homo sapiens, 48 h): 6.24 µM
CC50 (NCI/ADR-RES; Homo sapiens, 48 h, read-out: LC50 (the source's name)): 74.2 µM
SI (TGI) (NCI/ADR-RES; MG_MID_60/value): 0.77
GI50 (Ovarian Cancer; Homo sapiens, Ovarian Cancer subpanel mean, read-out: MG_MID GI50): 4.61 µM
CC50 (Ovarian Cancer; Homo sapiens, Ovarian Cancer subpanel mean, read-out: MG_MID LC50): 50.5 µM
MG_MID TGI (Ovarian Cancer; Ovarian Cancer subpanel mean): 16.7 µM
SI (MG_MID TGI) (Ovarian Cancer; Ovarian Cancer subpanel, MG_MID_60/value): 1.11
GI50 (UO-31; Homo sapiens, UO-31, 48 h): 3.43 µM
CC50 (UO-31; Homo sapiens, UO-31, 48 h, read-out: LC50 (the source's name)): 38.8 µM
TGI (UO-31; UO-31, 48 h): 13.7 µM
SI (TGI) (UO-31; UO-31, MG_MID_60/value): 1.36
MG_MID TGI (Breast Cancer; Breast Cancer subpanel mean): 13.2 µM
SI (MG_MID TGI) (Breast Cancer; Breast Cancer subpanel, MG_MID_60/value): 1.41
GI50 (Breast Cancer; Homo sapiens, Breast Cancer subpanel mean, read-out: MG_MID GI50): 2.32 µM
CC50 (Breast Cancer; Homo sapiens, Breast Cancer subpanel mean, read-out: MG_MID LC50): 55.8 µM
